According to US20240398795A1, “COMBINATION THERAPIES USING PRMT5 INHIBITORS FOR THE TREATMENT OF CANCER” (MIRATI THERAPEUTICS, INC., priority 2021, published 2024):

Key:
Type in all cases: in vivo, mice
SW1573 xenograft tumors = experiment: SW1573 xenograft tumor volume study; conditions: n=5, MRTX1719 50 mg/kg PO QD, Docetaxel 15 mg/kg IP Q7D, combination 50 mg PO QD + 15 mg/kg IP Q7D
Procedure: (§1) Immunodeficient female nu/nu or BALBC/Nude mice were subcutaneously implanted with 3×10^6 to 1×10^7 human derived cancer cells depending on the cell line xenograft model. Tumors were measured using calipers until they reached approximately 100-150 mm^3. […] Tumor volume was measured twice a week (n=5/treatment group). Average tumor volume and standard error of the mean was calculated and plotted at each study day in GraphPad.
(§2) This example was carried out according to the study procedure described above. […] MRTX1719 is (2M)-2-(4-(4-(aminomethyl)-1-oxo-1,2-dihydrophthalazin-6-yl)-1-methyl-1H-pyrazol-5-yl)-4-chloro-6-cyclopropoxy-3-fluorobenzonitrile, disclosed as Example 16-8 at p. 307 of the International patent publication No. WO 2021/050915 A1, published 18 Mar. 2021, incorporated by reference in its entirety.
Substantially the same procedure as Example 1 was repeated except with mice bearing SW1573 xenograft tumors.

KP4 xenograft tumors = experiment: KP4 xenograft tumor volume study; conditions: n=5, Docetaxel 15 mg/kg IP Q7D, combination 100 mg PO QD + 15 mg/kg IP Q7D
Procedure: as §1
(§3) This example was carried out according to the study procedure described above. The PRMT5 inhibitor was MRTX1719 administered at 100 mg/kg once a day (QD). MRTX1719 is (2M)-2-(4-(4-(aminomethyl)-1-oxo-1,2-dihydrophthalazin-6-yl)-1-methyl-1H-pyrazol-5-yl)-4-chloro-6-cyclopropoxy-3-fluorobenzonitrile, disclosed as Example 16-8 at p. 307 of the International patent publication No. WO 2021/050915 A1, published 18 Mar. 2021, incorporated by reference in its entirety.
Substantially the same procedure of Example 1 was repeated except with mice bearing KP4 xenograft tumors.

H1650 xenograft tumors = experiment: NCI-H1650 xenograft tumor volume study; conditions: n=5, MRTX1719 100 mg/kg PO QD, Docetaxel 10 mg/kg IP Q7D, combination 100 mg/kg PO QD + 10 mg/kg IP Q7D
Procedure: as §1, §3

[1] = system: MIAPaCa-2 xenograft tumors; experiment: MIAPaCa-2 xenograft tumor volume study; conditions: n=5, MRTX1719 100 mg/kg PO QD, Docetaxel 15 mg/kg IP Q7D, combination 100 mg PO QD + 15 mg/kg IP Q7D
Procedure: as §1
This example was carried out according to the study procedure described above. The PRMT5 inhibitor was MRTX1719 administered at 100 mg/kg once a day (QD). […] 307 of the International patent publication No. WO 2021/050915 A1, published 18 Mar. 2021, incorporated by reference in its entirety.
Substantially the same procedure of Example 1 was repeated except with mice bearing MIAPaCa-2 xenograft tumors.

HCC4006 xenograft tumors = experiment: HCC4006 xenograft tumor volume study; conditions: n=5, MRTX1719 100 mg/kg PO QD, Docetaxel 10 mg/kg IP Q7D, combination 100 mg PO QD + 10 mg/kg IP Q7D
Procedure: as §1, §3
Substantially the same procedure as Example 1 was repeated except with mice bearing HCC4006 xenograft tumors.

[2] = system: NCI-H2228 xenograft tumors; experiment: NCI-H2228 xenograft tumor volume study; conditions: n=5, MRTX1719 100 mg/kg PO QD, Docetaxel 10 mg/kg IP Q7D, combination 100 mg PO QD + 10 mg/kg IP Q7D
Procedure: as §1, §3
Substantially the same procedure as Example 1 was repeated except with mice bearing NCI-H2228 xenograft tumors.

A549 xenograft tumors = experiment: A549 xenograft tumor volume study; conditions: n=5, MRTX1719 100 mg/kg PO QD, Docetaxel 15 mg/kg IP Q7D, combination 100 mg PO QD + 15 mg/kg IP Q7D
Procedure: as §1, §3
Substantially the same procedure as Example 1 was repeated except with mice bearing A549 xenograft tumors.

LU99 xenograft tumors = experiment: LU99 xenograft tumor volume study; conditions: n=5, MRTX1719 50 mg/kg PO QD, Docetaxel 15 mg/kg IP Q7D, combination 50 mg PO QD + 15 mg/kg IP Q7D
Procedure: as §1, §2
Substantially the same procedure of Example 1 was repeated except with mice bearing LU99 xenograft tumors.

For `CC(=O)O[C@@]12CO[C@@H]1C[C@H](O)[C@@]1(C)C(=O)[C@H](O)C3=C(C)[C@@H](OC(=O)[C@H](O)[C@@H](NC(=O)OC(C)(C)C)c4ccccc4)C[C@@](O)([C@@H](OC(=O)c4ccccc4)[C@H]21)C3(C)C` [Docetaxel, docetaxel], the “Tumor Volume, Mean” value (SW1573 xenograft tumors; Day 0) was 141 mm^3, the “Tumor Volume, Mean” value (SW1573 xenograft tumors; Day 3) was 148 mm^3 and the “Tumor Volume, Mean” value (SW1573 xenograft tumors; Day 8) was 191 mm^3. The “Tumor Volume, Mean” value (SW1573 xenograft tumors; Day 10) was 231 mm^3, the “Tumor Volume, Mean” value (SW1573 xenograft tumors; Day 14) was 281 mm^3 and the “Tumor Volume, Mean” value (SW1573 xenograft tumors; Day 17) was 302 mm^3. For the same compound, the “Tumor Volume, Mean” value (SW1573 xenograft tumors; Day 21) was 352 mm^3, the “Tumor Volume, Mean” value (KP4 xenograft tumors; Day 0, MRTX1719 100 mg/kg PO QD) was 144 mm^3 and the “Tumor Volume, Mean” value (KP4 xenograft tumors; Day 5, MRTX1719 100 mg/kg PO QD) was 121 mm^3. For the same compound, the “Tumor Volume, Mean” value (KP4 xenograft tumors; Day 7, MRTX1719 100 mg/kg PO QD) was 105 mm^3, the “Tumor Volume, Mean” value (KP4 xenograft tumors; Day 11, MRTX1719 100 mg/kg PO QD) was 90 mm^3 and the “Tumor Volume, Mean” value (KP4 xenograft tumors; Day 14, MRTX1719 100 mg/kg PO QD) was 82 mm^3. For the same compound, the “Tumor Volume, Mean” value (KP4 xenograft tumors; Day 19, MRTX1719 100 mg/kg PO QD) was 126 mm^3, the “Tumor Volume, Mean” value (KP4 xenograft tumors; Day 21, MRTX1719 100 mg/kg PO QD) was 272 mm^3 and the “Tumor Volume, Mean” value (KP4 xenograft tumors; Day 25) was 482 mm^3. The “Tumor Volume, Mean” value (KP4 xenograft tumors; Day 28) was 592 mm^3, the “Tumor Volume, Mean” value (KP4 xenograft tumors; Day 32) was 785 mm^3 and the “Tumor Volume, Mean” value (KP4 xenograft tumors; Day 35) was 895 mm^3. For the same compound, the “Tumor Volume, Mean” value (H1650 xenograft tumors; Day 0) was 147 mm^3, the “Tumor Volume, Mean” value (H1650 xenograft tumors; Day 3) was 291 mm^3 and the “Tumor Volume, Mean” value (H1650 xenograft tumors; Day 7) was 425 mm^3. For the same compound, the “Tumor Volume, Mean” value (H1650 xenograft tumors; Day 10) was 660 mm^3, the “Tumor Volume, Mean” value (H1650 xenograft tumors; Day 14) was 710 mm^3 and the “Tumor Volume, Mean” value (H1650 xenograft tumors; Day 17) was 770 mm^3. For the same compound, the “Tumor Volume, Mean” value (H1650 xenograft tumors; Day 20) was 826 mm^3, the “Tumor Volume, Mean” value ([1]; Day 1) was 133 mm^3 and the “Tumor Volume, Mean” value ([1]; Day 5) was 187 mm^3. The “Tumor Volume, Mean” value ([1]; Day 13) was 268 mm^3, the “Tumor Volume, Mean” value ([1]; Day 16) was 315 mm^3 and the “Tumor Volume, Mean” value ([1]; Day 19) was 375 mm^3. For the same compound, the “Tumor Volume, Mean” value ([1]; Day 22) was 415 mm^3, the “Tumor Volume, Mean” value (HCC4006 xenograft tumors; Day 0) was 126 mm^3 and the “Tumor Volume, Mean” value (HCC4006 xenograft tumors; Day 2) was 151 mm^3. The “Tumor Volume, Mean” value (HCC4006 xenograft tumors; Day 5) was 139 mm^3, the “Tumor Volume, Mean” value (HCC4006 xenograft tumors; Day 9) was 140 mm^3 and the “Tumor Volume, Mean” value (HCC4006 xenograft tumors; Day 12) was 150 mm^3. For the same compound, the “Tumor Volume, Mean” value (HCC4006 xenograft tumors; Day 16) was 143 mm^3, the “Tumor Volume, Mean” value (HCC4006 xenograft tumors; Day 20) was 137 mm^3 and the “Tumor Volume, Mean” value ([2]; Day 0) was 121 mm^3. The “Tumor Volume, Mean” value ([2]; Day 3) was 100 mm^3, the “Tumor Volume, Mean” value ([2]; Day 6) was 73 mm^3 and the “Tumor Volume, Mean” value ([2]; Day 9) was 76 mm^3. The “Tumor Volume, Mean” value ([2]; Day 13) was 68 mm^3, the “Tumor Volume, Mean” value ([2]; Day 16) was 42 mm^3 and the “Tumor Volume, Mean” value ([2]; Day 20) was 15 mm^3. For the same compound, the “Tumor Volume, Mean” value ([2]; Day 23) was 10 mm^3, the “Tumor Volume, Mean” value ([2]; Day 27) was 12 mm^3 and the “Tumor Volume, Mean” value (A549 xenograft tumors; Day 1) was 118 mm^3. For the same compound, the “Tumor Volume, Mean” value (A549 xenograft tumors; Day 5) was 128 mm^3, the “Tumor Volume, Mean” value (A549 xenograft tumors; Day 8) was 156 mm^3 and the “Tumor Volume, Mean” value (A549 xenograft tumors; Day 12) was 160 mm^3. The “Tumor Volume, Mean” value (A549 xenograft tumors; Day 15) was 169 mm^3, the “Tumor Volume, Mean” value (A549 xenograft tumors; Day 19) was 167 mm^3 and the “Tumor Volume, Mean” value (A549 xenograft tumors; Day 22) was 163 mm^3. For the same compound, the “Tumor Volume, Mean” value (A549 xenograft tumors; Day 26) was 162 mm^3, the “Tumor Volume, Mean” value (A549 xenograft tumors; Day 29) was 189 mm^3 and the “Tumor Volume, Mean” value (A549 xenograft tumors; Day 34) was 239 mm^3. The “Tumor Volume, Mean” value (LU99 xenograft tumors; Day 0) was 153 mm^3, the “Tumor Volume, Mean” value (LU99 xenograft tumors; Day 5) was 184 mm^3 and the “Tumor Volume, Mean” value (LU99 xenograft tumors; Day 8) was 299 mm^3. The “Tumor Volume, Mean” value (LU99 xenograft tumors; Day 12) was 459 mm^3, the “Tumor Volume, Mean” value (LU99 xenograft tumors; Day 15) was 757 mm^3 and the “Tumor Volume, Mean” value (LU99 xenograft tumors; Day 20) was 1057 mm^3. For the same compound, the “Tumor Volume, Mean” value (LU99 xenograft tumors; Day 22) was 1255 mm^3 and the “Tumor Volume, Mean” value (LU99 xenograft tumors; Day 26) was 1722 mm^3.
